The experiment concerns rats subjected to impact acceleration injury. Kind of experiment: Impact acceleration injury (traumatic brain injury) in rats, GFAP immuno-fluorescence of cortex 24 hours after injury. It counts as in vivo. The settings on record: rat. From the text:
FIG. 3 through 5 represent respectively, representative photomicrographs of three groups of ten rats which have been subjected to the development of traumatic brain injury through impact by a weight under experimental conditions described hereinafter.
Low and high magnification micrographs of glial fibrillary acidic proteins (GFAP) immuno-fluorescence using a laser-scanning confocal microscope produced FIGS. 3 through 5. The GFAP antibody labels the intermediate filaments of most astrocytes in the brain. These photomicrographs, which were taken 24 hours after the animals were subjected to impact acceleration injury, show areas of cortex slightly lateral to the midline. The pial surface is at the top of the images and the midline is to the left of all images. In the sham animals shown in FIG. 3, a normal distribution of GFAP labeled astrocytes is seen, including their endfeet which surround the neurovasculature. […] There is also a patchy loss of GFAP-labeled astrocytes throughout the cortex and the vasculature shown by the arrow heads (as contrasted with the full arrows) appears damaged. It should also be noted that many of the remaining astrocytes appear to be hypertrophied. The loss of all GFAP-immunoreactivity and appearance of astrocyte hypertrophy are indicative of a neuroinflammatory response to injury.
In order to provide additional information regarding the invention, experiments were performed on animals who were subjected to the impact acceleration injury described hereinbefore, with the animals subsequently being sacrificed and the brains examined 24 hours after the injury. Tests were performed with body specimens which were urinary excretion and also with blood, either blood plasma or blood serum. In each group of ten animals, all had their urine tested and six had blood tested. With the sham animals, the mean urinary excretion values of marinobufagenin were 423±130 (SE)pgMBG/mg creatinine. With the impact acceleration injury rats, the mean urinary excretion values of marinobufagenin were […]. […] These tests confirm the evaluation of marinobufagenin in both urine and blood when an impact acceleration injury is present.

Where [1] appears, read: 120 μg bolus about 90 minutes after injury, 24 hours after injury, FIG. 5.

The structures appear in SMILES notation.

As for `C[C@]12CC[C@H](O)C[C@H]1CC[C@@H]1[C@@H]2CC[C@]2(C)[C@@H](c3ccc(=O)oc3)C[C@H]3O[C@]132` [resibufogenin], under setting [1], the GFAP immunoreactivity result is recorded as “reduce the decrease in GFAP immunoreactivity”; the “appearance of GFAP labeled astrocytes (normal vs hypertrophied)” value is recorded as “a greater proportion of GFAP labeled astrocytes have a normal, rather than a hypertrophied appearance”; the “glial scar in cortex” value is on record as “no observed glial scar”. In addition, the “alterations after impact acceleration injury (glial scar, patchy loss of GFAP-labeled astrocytes, damaged vasculature, astrocyte hypertrophy)” value (120 μg bolus of resibufogenin about 90 minutes after injury, cortex examined 24 hours after injury, FIG. 5 vs FIG. 4) is on record as “most of these alterations are ameliorated”.

The values above are taken from US10514377B2, “Method of diagnosing and therapeutically treating a patient for a traumatic brain injury” (priority 2010, dated 2019).
